Like-named read-outs stand apart in the source and are kept apart here.

One assay has as its target T1, PI3Kγ (p120γ) (Homo sapiens, UniProt P48736).
T1 construct: purchased Promega V1761
Put plainly: Inhibition of PI3K kinase activity (ADP Glo), PI3Kγ. As to conditions: read-out: biochemical potency (PI3Kγ IC50). A digest of the protocol: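 IC50 values come from a 4-parameter nonlinear fit of ADP-Glo luminescence, which measures ADP produced as PIP2 is phosphorylated to PIP3. The p120γ enzyme (2× stock 8 nM) sat with compound 1 h at rt before substrate (2× stocks: 50 μM ATP, 0.1 mg/ml PIP2) was added. Phosphorylation then proceeded 60 min at rt.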

The target in the next assay is T2, PI3Kγ (Homo sapiens, UniProt P48736).
T2 construct: host or cells: THP-1
T2 sequence (P48736 whole entry): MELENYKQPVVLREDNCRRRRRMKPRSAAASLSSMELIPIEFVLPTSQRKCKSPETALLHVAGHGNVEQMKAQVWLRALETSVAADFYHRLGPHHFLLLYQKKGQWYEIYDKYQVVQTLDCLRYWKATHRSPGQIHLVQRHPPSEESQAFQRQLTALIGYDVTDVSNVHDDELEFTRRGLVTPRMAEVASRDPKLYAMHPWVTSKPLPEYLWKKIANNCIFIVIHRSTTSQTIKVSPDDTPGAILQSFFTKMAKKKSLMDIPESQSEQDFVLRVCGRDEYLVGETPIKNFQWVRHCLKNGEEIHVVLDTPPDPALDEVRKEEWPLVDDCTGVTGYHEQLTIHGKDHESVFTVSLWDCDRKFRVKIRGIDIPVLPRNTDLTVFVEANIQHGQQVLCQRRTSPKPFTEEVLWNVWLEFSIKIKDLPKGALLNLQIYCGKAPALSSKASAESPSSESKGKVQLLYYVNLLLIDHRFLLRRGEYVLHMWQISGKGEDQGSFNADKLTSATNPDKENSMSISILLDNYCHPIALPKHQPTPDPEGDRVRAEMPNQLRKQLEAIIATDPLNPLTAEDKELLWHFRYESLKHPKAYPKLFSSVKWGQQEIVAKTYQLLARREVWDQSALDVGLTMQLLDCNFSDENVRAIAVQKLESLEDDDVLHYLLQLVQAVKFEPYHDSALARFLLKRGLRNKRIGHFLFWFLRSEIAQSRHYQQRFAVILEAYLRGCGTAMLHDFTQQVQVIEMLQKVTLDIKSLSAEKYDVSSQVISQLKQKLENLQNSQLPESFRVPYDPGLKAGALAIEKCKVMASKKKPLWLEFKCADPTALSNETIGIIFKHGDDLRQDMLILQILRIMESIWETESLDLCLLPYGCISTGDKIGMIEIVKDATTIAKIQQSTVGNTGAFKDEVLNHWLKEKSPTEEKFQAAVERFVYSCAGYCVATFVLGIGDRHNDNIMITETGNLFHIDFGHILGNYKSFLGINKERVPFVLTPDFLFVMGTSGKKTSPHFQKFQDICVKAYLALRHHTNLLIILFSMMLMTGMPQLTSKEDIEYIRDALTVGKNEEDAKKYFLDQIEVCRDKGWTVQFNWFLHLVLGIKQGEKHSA
Put plainly: PI3Kγ cellular assay in THP-1 cells (AKT pS473 AlphaLISA). Type of assay: cell-based. An outline of the steps: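 Endogenous AKT S473 phosphorylation, detected by AlphaLISA in lysates, serves as the PI3Kγ activity read-out in stimulated, serum-starved THP-1 cells (1.8×10^5/well).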

Where [1] appears, read: Table 1, rhMCP-1 stimulated AKT pS473, read-out: cellular potency (PI3Kγ IC50).
[2] abbreviates: AKT pS473, read-out: cellular potency (PI3Kγ IC50).
Where [3] appears, read: Table 3, rhMCP-1 stimulated AKT pS473, read-out: cellular potency (PI3Kγ IC50).
Setting [4] is: Table 2, rhMCP-1 stimulated AKT pS473, read-out: cellular potency (PI3Kγ IC50).

T1 sequence (P48736 whole entry): as above

Take `C[C@@H](C1CC1)N1Cc2cc(-c3ccn4nc(N)c(C(=O)N[C@@H]5CCC[C@H]5O)c4n3)cc(NS(C)(=O)=O)c2C1=O` [Example 72, 2-Amino-5-{2-[(1S)-1-cyclopropylethyl]-7-methanesulfonamido-1-oxo-2,3-dihydro-1H-isoindol-5-yl}-N-[(1R,2R)-2-hydroxycyclopentyl]pyrazolo[1,5-a]pyrimidine-3-carboxamide]: the IC50 on PI3Kγ (p120γ) (Table 1, p120γ) was below 100 nM; on PI3Kγ (setting [1]) it was below 100 nM.

On to `Cc1nn(C)cc1NC(=O)c1c(N)nn2ccc(-c3cc4c(c(NS(C)(=O)=O)c3)C(=O)N([C@@H](C)C3CC3)C4)nc12` [Example 107, 2-Amino-5-{2-[(1S)-1-cyclopropylethyl]-7-methanesulfonamido-1-oxo-2,3-dihydro-1H-isoindol-5-yl}-N-(1,3-dimethyl-1H-pyrazol-4-yl)pyrazolo[1,5-a]pyrimidine-3-carboxamide], for which the IC50 at PI3Kγ (p120γ) (Table 1, p120γ) was below 100 nM; at PI3Kγ (setting [1]) it was below 100 nM.

With `C[C@@H](C1CC1)N1Cc2cc(-c3ccn4nc(N)c(C(=O)Nc5ccccc5F)c4n3)cc(NS(C)(=O)=O)c2C1=O` [Example 397], the values for the IC50 at PI3Kγ (p120γ) and at PI3Kγ (setting [2]) were below 100 nM and 100 to 1000 nM, respectively.

In the case of `C[C@@H](C1CC1)N1Cc2cc(-c3ccn4nc(N)c(C(=O)NC[C@H](O)CO)c4n3)cc(C(F)(F)F)c2C1=O` [Example 348], the IC50 on PI3Kγ (p120γ) (Table 3, p120γ) is below 100 nM; at PI3Kγ (setting [3]), 100 to 1000 nM.

Consider `Cc1cc(-c2ccn3nc(N)c(C(=O)NC4(CCO)CC4)c3n2)cc2c1C(=O)N([C@@H](C)C1CC1)C2` [Example 228], for which the 50% inhibitory concentration (IC50) at PI3Kγ (p120γ) (Table 2, p120γ) was below 100 nM; at PI3Kγ (setting [4]) it was 100 to 1000 nM.

In the case of `Cc1ccccc1NC(=O)c1c(N)nn2ccc(-c3cc4c(c(NS(C)(=O)=O)c3)C(=O)N([C@@H](C)C3CC3)C4)nc12` [Example 391], the IC50 is below 100 nM at PI3Kγ (p120γ) and 100 to 1000 nM at PI3Kγ (setting [2]).

`C[C@@H](C1CC1)N1Cc2cc(-c3ccn4nc(N)c(C(=O)NC5CC5)c4n3)cc(O[C@H]3CC[C@H](O)CC3)c2C1=O` [Example 149, 2-Amino-N-cyclopropyl-5-{2-[(1S)-1-cyclopropylethyl]-1-oxo-7-{[(1R,4R)-4-hydroxycyclohexyl]oxy}-2,3-dihydro-1H-isoindol-5-yl}pyrazolo[1,5-a]pyrimidine-3-carboxamide]: the IC50 on PI3Kγ (p120γ) (Table 1, p120γ) is below 100 nM; at PI3Kγ (setting [1]), below 100 nM.

`C[C@@H](C1CC1)N1Cc2cc(-c3ccn4nc(N)c(C(=O)N[C@@H](CO)C5CC5)c4n3)cc(OC(F)F)c2C1=O` [Example 159, 2-Amino-N-[(1R)-1-cyclopropyl-2-hydroxyethyl]-5-{2-[(1S)-1-cyclopropylethyl]-7-(difluoromethoxy)-1-oxo-2,3-dihydro-1H-isoindol-5-yl}pyrazolo[1,5-a]pyrimidine-3-carboxamide]: the half-maximal inhibitory concentration (IC50) on PI3Kγ (p120γ) (Table 1, p120γ) was below 100 nM; on PI3Kγ (setting [1]), below 100 nM.

As for `Cc1ccc(NC(=O)c2c(N)nn3ccc(-c4cc5c(c(OC(F)(F)F)c4)C(=O)N([C@@H](C)C4CC4)C5)nc23)cn1` [Example 45, 2-[(S)-1-Cyclopropylethyl]-5-{2-amino-3-[(6-methyl-3-pyridylamino)carbonyl]-1,4,7a-triaza-5-indenyl}-7-trifluoromethoxy-1-isoindolinone], the half-inhibitory concentration (IC50) on PI3Kγ (p120γ) (Table 1, p120γ) was below 100 nM; on PI3Kγ (setting [1]) it was below 100 nM.

With `Cc1cc(-c2ccn3nc(N)c(C(=O)NCC4CC4)c3n2)cc2c1C(=O)N([C@@H](C)C1CC1)C2` [Example 213], the IC50 is below 100 nM at PI3Kγ (p120γ) (Table 2, p120γ) and 100 to 1000 nM on PI3Kγ (setting [4]).

For the compound `Cc1cc(-c2ccn3nc(N)c(C(=O)N[C@@H](C(N)=O)c4ccccc4)c3n2)cc2c1C(=O)N([C@@H](C)C1CC1)C2` [Example 245], the IC50 is below 100 nM on PI3Kγ (p120γ) (Table 2, p120γ) and 100 to 1000 nM on PI3Kγ (setting [4]).

Turning to `C[C@@H](C1CC1)N1Cc2cc(-c3ccn4nc(N)c(C(=O)Nc5ccncc5)c4n3)cc(C(F)(F)F)c2C1=O` [Example 69, (S)-2-Amino-5-(2-(1-cyclopropylethyl)-1-oxo-7-(trifluoromethyl)isoindolin-5-yl)-N-(pyridin-4-yl)pyrazolo[1,5-a]pyrimidine-3-carboxamide], the half-inhibitory concentration (IC50) on PI3Kγ (p120γ) (Table 1, p120γ) was below 100 nM; at PI3Kγ (setting [1]), below 100 nM.

Consider `C[C@@H](C1CC1)N1Cc2cc(-c3ccn4nc(N)c(C(=O)NC5CC5)c4n3)cc(Cl)c2C1=O` [Example 162, 2-Amino-5-{7-chloro-2-[(1S)-1-cyclopropylethyl]-1-oxo-2,3-dihydro-1H-isoindol-5-yl}-N-cyclopropylpyrazolo[1,5-a]pyrimidine-3-carboxamide], for which the IC50 at PI3Kγ (p120γ) (Table 1, p120γ) was below 100 nM; on PI3Kγ (setting [1]), below 100 nM.

`Cc1cc(-c2ccn3nc(N)c(C(=O)N4CCN(C)CC4)c3n2)cc2c1C(=O)N(C(C)C1CC1)C2` (stereo not shown) [Example 291]: the IC50 at PI3Kγ (p120γ) (Table 2, p120γ) is above 1000 nM; on PI3Kγ (setting [4]) it was above 1000 nM.

In the case of `Cc1cc(-c2ccn3nc(N)c(C(=O)N[C@@H](C)C(N)=O)c3n2)cc2c1C(=O)N([C@@H](C)C1CC1)C2` [Example 190], the IC50 on PI3Kγ (p120γ) (Table 2, p120γ) is below 100 nM; at PI3Kγ (setting [4]) it was 100 to 1000 nM.

On to `Cc1cc(-c2ccn3nc(N)c(C(=O)N[C@H]4C[C@](C)(O)C4)c3n2)cc2c1C(=O)N([C@@H](C)C1CC1)C2` [Example 6, 2-Amino-5-{2-[(1S)-1-cyclopropylethyl]-7-methyl-1-oxo-2,3-dihydro-1H-isoindol-5-yl}-N-[trans-3-hydroxy-3-methylcyclobutyl]pyrazolo[1,5-a]pyrimidine-3-carboxamide], for which the IC50 at PI3Kγ (p120γ) (Table 1, p120γ) was below 100 nM; on PI3Kγ (setting [1]), below 100 nM.

For the compound `C[C@@H](C1CC1)N1Cc2cc(-c3ccn4nc(N)c(C(=O)Nc5cccnc5)c4n3)cc(N3CC[C@@H](O)C3)c2C1=O` [Example 438], the concentration for half-maximal inhibition (IC50) on PI3Kγ (p120γ) (Table 6, p120γ) was below 100 nM; at PI3Kγ (Table 6, rhMCP-1 stimulated AKT pS473, read-out: cellular potency (PI3Kγ IC50)), 100 to 1000 nM.

Consider `C[C@@H](C1CC1)N1Cc2cc(-c3ccn4nc(N)c(C(=O)Nc5cccc(F)c5)c4n3)cc(NS(C)(=O)=O)c2C1=O` [Example 378], for which the IC50 on PI3Kγ (p120γ) was below 100 nM; at PI3Kγ (setting [2]), 100 to 1000 nM.

Consider `CCS(=O)(=O)Nc1cc(-c2ccn3nc(N)c(C(=O)Nc4cccnc4)c3n2)cc2c1C(=O)N([C@@H](C)C1CC1)C2` [Example 112, 2-Amino-5-{2-[(1S)-1-cyclopropylethyl]-7-ethanesulfonamido-1-oxo-2,3-dihydro-1H-isoindol-5-yl}-N-(pyridin-3-yl)pyrazolo[1,5-a]pyrimidine-3-carboxamide], for which the IC50 at PI3Kγ (p120γ) (Table 1, p120γ) was below 100 nM; on PI3Kγ (setting [1]), below 100 nM.

Turning to `Cc1cc(-c2ccn3nc(N)c(C(=O)NC4CC4)c3n2)cc2c1C(=O)N([C@H](C)c1ccncc1)C2` [Example 331], the IC50 at PI3Kγ (p120γ) (Table 2, p120γ) is below 100 nM; at PI3Kγ (setting [4]), above 1000 nM.

As to `Cc1cc(-c2ccn3nc(N)c(C(=O)NC4CC4)c3n2)cc2c1C(=O)N(C(C)(C)CO)C2` [Example 316], the IC50 is below 100 nM on PI3Kγ (p120γ) (Table 2, p120γ) and 100 to 1000 nM on PI3Kγ (setting [4]).

For `Cc1cc(-c2ccn3nc(N)c(C(=O)NC4CC4)c3n2)cc2c1C(=O)N([C@@H](CO)C1CC1)C2` [Example 311], the IC50 is below 100 nM on PI3Kγ (p120γ) (Table 2, p120γ) and 100 to 1000 nM on PI3Kγ (setting [4]).

Take `C[C@@H](C1CC1)N1Cc2cc(-c3ccn4nc(N)c(C(=O)NC5CC5)c4n3)cc(O[C@H]3CCOC3)c2C1=O` [Example 146, 2-Amino-N-cyclopropyl-5-{2-[(1S)-1-cyclopropylethyl]-1-oxo-7-[(3S)-oxolan-3-yloxy]-2,3-dihydro-1H-isoindol-5-yl}pyrazolo[1,5-a]pyrimidine-3-carboxamide]: the IC50 is below 100 nM at PI3Kγ (p120γ) (Table 1, p120γ) and below 100 nM on PI3Kγ (setting [1]).

`C[C@H](O)CCNC(=O)c1c(N)nn2ccc(-c3cc4c(c(C(F)(F)F)c3)C(=O)N([C@@H](C)C3CC3)C4)nc12` [Example 346]: the IC50 on PI3Kγ (p120γ) (Table 3, p120γ) was below 100 nM; at PI3Kγ (setting [3]) it was 100 to 1000 nM.

Consider `Cc1cc(-c2ccn3nc(N)c(C(=O)N[C@@H]4CC[C@@H](O)C4)c3n2)cc2c1C(=O)N([C@@H](C)C1CC1)C2` [Example 5, 2-Amino-5-{2-[(1S)-1-cyclopropylethyl]-7-methyl-1-oxo-2,3-dihydro-1H-isoindol-5-yl}-N-[(1R,3R)-3-hydroxycyclopentyl]pyrazolo[1,5-a]pyrimidine-3-carboxamide], for which the IC50 at PI3Kγ (p120γ) (Table 1, p120γ) was below 100 nM; at PI3Kγ (setting [1]), below 100 nM.

As for `Cc1cc(-c2ccn3nc(N)c(C(=O)N[C@@H]4COC[C@H]4O)c3n2)cc2c1C(=O)N([C@@H](C)C1CC1)C2` [Example 199], the half-maximal inhibitory concentration (IC50) on PI3Kγ (p120γ) (Table 2, p120γ) was below 100 nM; at PI3Kγ (setting [4]), 100 to 1000 nM.

Take `Cc1cc(-c2ccn3nc(N)c(C(=O)Nc4cnn(C)c4C)c3n2)cc2c1C(=O)N([C@@H](C)C1CC1)C2` [Example 19, 2-Amino-5-{2-[(1S)-1-cyclopropylethyl]-7-methyl-1-oxo-2,3-dihydro-1H-isoindol-5-yl}-N-(1,5-dimethyl-1H-pyrazol-4-yl)pyrazolo[1,5-a]pyrimidine-3-carboxamide]: the IC50 at PI3Kγ (p120γ) (Table 1, p120γ) was below 100 nM; at PI3Kγ (setting [1]), below 100 nM.

Turning to `Cc1cc(-c2ccn3nc(N)c(C(=O)Nc4cnn(CCO)c4)c3n2)cc2c1C(=O)N([C@@H](C)C1CC1)C2` [Example 16, 2-Amino-5-{2-[(1S)-1-cyclopropylethyl]-7-methyl-1-oxo-2,3-dihydro-1H-isoindol-5-yl}-N-[1-(2-hydroxyethyl)-1H-pyrazol-4-yl]pyrazolo[1,5-a]pyrimidine-3-carboxamide], the 50% inhibitory concentration (IC50) on PI3Kγ (p120γ) (Table 1, p120γ) is below 100 nM; at PI3Kγ (setting [1]), below 100 nM.

With `Cc1cc(-c2ccn3nc(N)c(C(=O)N[C@@H](C)c4cnn(C)c4)c3n2)cc2c1C(=O)N([C@@H](C)C1CC1)C2` [Example 235], the 50% inhibitory concentration (IC50) at PI3Kγ (p120γ) (Table 2, p120γ) is below 100 nM; at PI3Kγ (setting [4]) it was 100 to 1000 nM.

Values taken from patent US20230024302A1, “2,3,5-TRISUBSTITUTED PYRAZOLO[1,5-A]PYRIMIDINE COMPOUNDS” (Arcus Biosciences, Inc., priority 2019, published 2023).
